Experimental findings from ChEMBL document CHEMBL1157538, “Discovery of a potent, selective, and orally bioavailable c-Met inhibitor: 1-(2-hydroxy-2-methylpropyl)-N-(5-(7-methoxyquinolin-4-yloxy)pyridin-2-yl)-5-methyl-3-oxo-2-phenyl-2,3-dihydro-1H-pyrazole-4-carboxamide (AMG 458)” (J Med Chem, 2008) are described below.

The structures appear in SMILES notation.

Series [1] can be described thus: Intrinsic clearance in BALB/c mouse liver microsome. Conditions: liver microsomes. The class given is ADME.
Series [2] is described as follows: Intrinsic clearance in human liver microsome. The class given is ADME. Particulars: liver microsomes.
The nature of series [3]: Intrinsic clearance in Sprague-Dawley rat liver microsome. Format: ADME. Particulars: liver microsomes.
The nature of series [4]: Oral bioavailability in rat. The class given is ADME, organism-based. Particulars: in vivo.
The nature of series [5]: Half life in rat. Particulars: in vivo. Format: ADME, organism-based.
A short description of series [6]: Clearance in rat. The class given is ADME, organism-based. Particulars: in vivo.
The test system of another series is Mus musculus. Nature of the series: Inhibition of HGF-mediated c-Met phosphorylation in BALB/c mouse liver at 30 mg/kg, po after 6 hrs. Format: functional. Also on record: scale not given: the % may be the effect or the level left.

With `COc1ccc2c(Oc3ccc(NC(=O)c4c(C)n(C[C@H](C)O)n(-c5ccccc5)c4=O)cc3F)ccnc2c1`, the microsomal CLint was less than 45 µL/min/mg in series [1], less than 55 µL/min/mg in series [2] and less than 60 µL/min/mg in series [3]. The compound also had a bioavailability in series [4] of more than 50%. In series [5], this compound gave a half-life of 1.9 h. In series [6], this compound displayed a clearance of less than 3.33 mL/min/kg.
Turning to `COc1ccc2c(Oc3ccc(NC(=O)c4c(C)n(C[C@@H](C)O)n(-c5ccccc5)c4=O)cc3F)ccnc2c1`, the microsomal CLint in series [1] is less than 45 µL/min/mg; in series [2] it was less than 55 µL/min/mg; in series [3], less than 60 µL/min/mg. Further, in the series with Mus musculus, the Activity was 98%. The compound also had a bioavailability in series [4] of more than 50%. Further, the half-life in series [5] was 1.9 h. The same compound showed a clearance in series [6] of less than 3.33 mL/min/kg.
